Entries after “also recorded” stand apart in the source; their conditions may differ. Read-outs that look alike come from different tables or passages of the source. Peptide text beside a SMILES is read from it. * marks the point of attachment. 5FAM = O=C1OC2(c3ccc(O)cc3Oc3cc(O)ccc32)c2ccc(C(=O)*)cc21; FAM = 5(6)-carboxyfluorescein; Ahx = NCCCCCC(=O)O
Tests used:
[1] = system: Huntington's disease subjects; conditions: human, in vivo; cited from earlier work
microglia = assay: FAM-Cerepep colocalization with microglia; type: in vivo, mouse; conditions: 100 μl of 2 mM i.v., 2.5 h
Protocol: To assess the ability of FAM-conjugated to Cerepep to colocalize with microglia, 100 μl of 2 mM FAM-Cerepep or FAM-scramble (SARVISRAKLARAL (SEQ ID NO: 70)) was injected into the tail vein of mice n=3. After 2.5 h of circulation, the animals were anesthetized and perfused, the brains were collected, cryosected, fixed, permeabilized, and incubated with CD11b-rat and anti-fluorescein-rabbit primary antibodies at room temperature for 2 hours. After washes, sections were incubated with Alexa Fluor […] anti-rat and Alexa Fluor 647 anti-rabbit secondary antibodies, sections were washed and stained with DAPI. Pictures were taken under a confocal microscope in 4 different areas of the brain (cortex, cerebellum, hippocampus, brainstem).

astrocytes = assay: FAM-Cerepep colocalization with astrocytes; type: in vivo, mouse; conditions: 100 μl of 2 mM i.v., 2.5 h
Protocol: (§1) To assess the ability of FAM-conjugated to Cerepep to colocalize with astrocytes, 100 μl of 2 mM FAM-Cerepep or FAM-scramble (SARVISRAKLARAL (SEQ ID NO:70)) was injected into the tail vein of mice n=3. After 2.5 h of circulation, the animals were anesthetized and perfused, the brains were collected, cryosected, fixed, permeabilized, and incubated with GFAP-rat and anti-fluorescein-rabbit primary antibodies for 2 hours at room temperature. After washes, sections were incubated with Alexa Fluor […] anti-rat and Alexa Fluor 647 anti-rabbit secondary antibodies, sections were washed and stained with DAPI. Pictures were taken under a confocal microscope in 4 different areas of the brain (cortex, cerebellum, hippocampus, brainstem).

Neuro2A cells [2] = assay: In vitro FAM-peptide binding and uptake; type: cell-based, mouse; conditions: 30 μM, 1 h, 4 °C (binding) or 37 °C (uptake)
Protocol: To assess the binding and uptake of Cerepep peptide, Neuro2A were cultured in 24-well plates on polylysine coated glass coverslips until 80-90% confluency. FAM-Cerepep (FAM-Ahx-SRRVISRAKLAAAL-OH (SEQ ID NO:9)) or control FAM-RPAR (FAM-RPARPAR-OH (SEQ ID NO:74)) peptide with the final concentration of 30 µM was added to Neuro2A cells in growth media and incubated at 4 °C (to study the binding) or 37 °C (to study the uptake) for 1 h. The cells were washed 4 times with growth media and fixed in methanol. The samples were stained with anti-fluorescein antibody to enhance the FAM signal. The fixed cells were first blocked with PBST (PBS+0.05% Tween 20), 5% BSA, 5% goat serum at RT for 30 min, followed by incubation with rabbit anti-fluorescein IgG (cat. no. A889, Thermo Fisher Scientific, MA, USA) at 4 °C for O/N and Alexa 647 goat anti-rabbit IgG secondary antibody at RT for 1h. Nuclei were counterstained with DAPI at 1 μg/ml. The coverslips were mounted on glass slides with Fluoromount-G (Electron Microscopy Sciences, PA, USA), imaged using confocal microscopy (Olympus FV1200MPE, Tokyo, Japan) and analyzed using the FV10-ASW4.2 software.
The binding (at 4 °C) and uptake (at 37 °C) of synthetic FAM-Cerepep by Neuro2A cells was also studied, comparing it to a control FAM-RPAR peptide which has a similar charge.

mature neurons = assay: FAM-Cerepep colocalization with mature neurons; type: in vivo, mouse; conditions: 100 μl of 2 mM i.v., 2.5 h
Protocol: as §1, with “mature neurons,” for “astrocytes,”, “NO: 70))” for “NO:70))”, “NeuN-mouse” for “GFAP-rat”, “anti-mouse” for “anti-rat”

mouse brain = assay: FAM-Cerepep brain distribution; type: in vivo; conditions: 100 μl of 2 mM i.v., 2.5 h circulation
Protocol: To assess the ability of FAM-conjugated to Cerepep to traverse the BBB, 100 μl of 2 mM FAM-Cerepep or FAM-scrambled Control peptide (SARVISRAKLARAL (SEQ ID NO:70)) was injected into the tail vein of mice n=3. After 2.5 h of circulation, the animals were anesthetized and perfused, the brains were collected, cryosected, fixed, permeabilized, and incubated with CD31-rat and anti-fluorescein-rabbit primary antibodies at room temperature for 2 hours. After washes, sections were incubated with Alexa Fluor […] anti-rat and Alexa Fluor 647 anti-rabbit secondary antibodies, washed and stained with DAPI. Images were taken using a confocal microscope in 4 different areas of the brain (cortex, cerebellum, hippocampus, brainstem).
To quantify FAM-Cerepep in different regions of the brain, expts were set up to assess fluorescence intensity. Briefly, 100 μl of 2 mM FAM-Cerepep or FAM-scrambled peptide (SARVISRAKLARAL (SEQ ID NO:70)) was injected into the tail vein of mice n=3. […] Images were taken under a confocal microscope in 4 different areas of the brain (cortex, cerebellum, hippocampus, brainstem), and fluorescence intensity in each brain region was measured and quantified using ImageJ, as depicted in FIGS. 22A-22E.

P3 human stem cells = assay: Inhibition of AgNP-Cerepep binding (FACS); type: cell-based; conditions: 4 °C, 1 h
Protocol: Briefly, P3 human stem cells were incubated with the indicated antibody (AB) or RAP (diluted in 20% of glycerol) at 4 °C for 1 h, after cells were exposed to AgNP-control or AgNP-Cerepep for 1 h at 4 °C, then the cells were analyzed by FACS.

human LRP1 = human LRP1 (Homo sapiens, UniProt Q07954); assay: Surface plasmon resonance analysis; type: binding; conditions: SPR
Protocol: Whether Cerepep (SRRVISRAKLAAAL (SEQ ID NO:9)) binds to human LRP1 purified from placenta was tested using surface plasmon resonance analysis. […] Furthermore, binding of CP-neutravidin complex to LRP1 is inhibited by RAP and EDTA, as can be expected with LRP1 ligands.
To determine which amino acid positions are important for brain homing of SERVISRAKLAAAL (SEQ ID NO:9), a pool of peptide-phage clones was compiled, where every amino acid position was one-by-one changed to alanine (alanines were changed to leucines). The peptide-phages were mixed in equimolar ratio, the Cerepep phage was included as a positive control and insertless as a negative control. The phage mix was injected into mice and following a 1 h circulation the amount of different phage clones in the brain was determined using HTS. […] Surface plasmon resonance analysis with human LRP-1 immobilized on a BIAcore sensor chip was used to assess whether CP-neutravidin complex directly interacts with human LRP-1. Angiopep-2-neutravidin complex was used as a positive control (FIGS. 7A-7B).

ALS subjects = conditions: human, in vivo, cited from earlier work
Neuro2A cells [3] = assay: Effect of endocytic inhibitors on CP-AgNP uptake (flow cytometry); type: cell-based, mouse; conditions: inhibitor 30 min at 37 °C: nystatin 50 μM, cytochalasin D 4 μM, chlorpromazine 30 μM
Protocol: […] The CP-AgNPs or control biotin-AgNPs were then added, and the cells were incubated at 37 °C for 1h, treated with an etching solution to remove accessible surface-bound AgNPs and subsequently washed with DPBS. The fluorescence of the labeled AgNPs was detected using the BD Accuri flow cytometer by monitoring the 555 nm channel FL2 and analyzed using FCS Express 7 software.
To study how treatment with endocytic inhibitors (nystatin, EIPA, cytochalasin D and chlorpromazine) affects the uptake of CP-AgNPs in Neuro2A cells, flow cytometry was used. Nystatin was used to block caveolae/lipid-mediated endocytosis, EIPA to block micropinocytosis, cytochalasin D to block actin polymerization and micropinocytosis and chlorpromazine to block clathrin-mediated endocytosis.

[4] = system: GBM and normal brain parenchyma; assay: Synthetic peptide homing in glioma-bearing mice (IHC); type: in vivo, mouse; conditions: synthetic peptide i.v., 1 h; WT-GBM and VEGFko GBM-bearing mice
Protocol: CVGTNCY (SEQ ID NO:2) peptide-phage or control phage were injected iv into mice, after one hour circulation animals were perfused with 20 ml PBS, organs were collected, weighed, and dropped to 1% NP40-LB solution. Organs were homogenized and titer of each tissue was determined. FAM-labeled peptides (2 mM of peptide in PBS) were injected intravenously and 3 hours later the animals were perfused with 20 mL of PBS. The organs were excised, snap-frozen in the vapor of liquid nitrogen, and stored at −80 °C. For confocal microscopy, the tissues were sectioned at 15 μm and stained with antibodies and DAPI.
Cryosections (15 μm) on Superfrost Plus slides were fixed in cold methanol, washed in PBS, treated with 3% hydrogen peroxide, and blocked in PBS containing 0.05% Tween-20, 5% BSA, and 5% goat serum (GE Healthcare, UK) for 1 h. The sections were immunostained with rabbit anti-fluorescein (cat #A889, Thermo Fisher Scientific, MA, USA) antibody overnight at +4 °C. […] Sections were imaged with Leica Aperio VERSA microscope slide scanner. Imaged were processed with Aperio Image Scope (v12.4.3.5008).
The synthetic CVGTNCY (SEQ ID NO:2) peptide or scrambled CVGTNCY (SEQ ID NO:2) homing in WT-GBM and VEGFko GBM-bearing mice was analyzed after i.v. injection and perfusion of the animals. Cryosections of glioma-bearing brains were stained with anti-FAM antibody and tyramide amplification kit to enhance the signal of the peptide.
To assess homing of CVG peptide in glioblastoma, CVGTNCY (SEQ ID NO:2) peptide-phage was injected iv into mice bearing either WT-GBM, VEGFko, U87MG or NCH421k GBM, and to mice without a tumor. At one hour time point mice were perfused, brains and control organs collected and titered. […] (FIGS. 17A-17B) Distribution of CVG peptide in GBM and brain parenchyma was also assessed. CVGTNCY (SEQ ID NO:2) peptide or its scrambled version (CVYTCNG; (SEQ ID NO: 68)) was injected iv into glioma bearing mice, after 1 hour circulation mice were perfused and tissues of interest snap-frozen in liquid nitrogen.

ADHD / ASD subjects = conditions: cited from earlier work

Chain of human LRP1 (Q07954 20-4544): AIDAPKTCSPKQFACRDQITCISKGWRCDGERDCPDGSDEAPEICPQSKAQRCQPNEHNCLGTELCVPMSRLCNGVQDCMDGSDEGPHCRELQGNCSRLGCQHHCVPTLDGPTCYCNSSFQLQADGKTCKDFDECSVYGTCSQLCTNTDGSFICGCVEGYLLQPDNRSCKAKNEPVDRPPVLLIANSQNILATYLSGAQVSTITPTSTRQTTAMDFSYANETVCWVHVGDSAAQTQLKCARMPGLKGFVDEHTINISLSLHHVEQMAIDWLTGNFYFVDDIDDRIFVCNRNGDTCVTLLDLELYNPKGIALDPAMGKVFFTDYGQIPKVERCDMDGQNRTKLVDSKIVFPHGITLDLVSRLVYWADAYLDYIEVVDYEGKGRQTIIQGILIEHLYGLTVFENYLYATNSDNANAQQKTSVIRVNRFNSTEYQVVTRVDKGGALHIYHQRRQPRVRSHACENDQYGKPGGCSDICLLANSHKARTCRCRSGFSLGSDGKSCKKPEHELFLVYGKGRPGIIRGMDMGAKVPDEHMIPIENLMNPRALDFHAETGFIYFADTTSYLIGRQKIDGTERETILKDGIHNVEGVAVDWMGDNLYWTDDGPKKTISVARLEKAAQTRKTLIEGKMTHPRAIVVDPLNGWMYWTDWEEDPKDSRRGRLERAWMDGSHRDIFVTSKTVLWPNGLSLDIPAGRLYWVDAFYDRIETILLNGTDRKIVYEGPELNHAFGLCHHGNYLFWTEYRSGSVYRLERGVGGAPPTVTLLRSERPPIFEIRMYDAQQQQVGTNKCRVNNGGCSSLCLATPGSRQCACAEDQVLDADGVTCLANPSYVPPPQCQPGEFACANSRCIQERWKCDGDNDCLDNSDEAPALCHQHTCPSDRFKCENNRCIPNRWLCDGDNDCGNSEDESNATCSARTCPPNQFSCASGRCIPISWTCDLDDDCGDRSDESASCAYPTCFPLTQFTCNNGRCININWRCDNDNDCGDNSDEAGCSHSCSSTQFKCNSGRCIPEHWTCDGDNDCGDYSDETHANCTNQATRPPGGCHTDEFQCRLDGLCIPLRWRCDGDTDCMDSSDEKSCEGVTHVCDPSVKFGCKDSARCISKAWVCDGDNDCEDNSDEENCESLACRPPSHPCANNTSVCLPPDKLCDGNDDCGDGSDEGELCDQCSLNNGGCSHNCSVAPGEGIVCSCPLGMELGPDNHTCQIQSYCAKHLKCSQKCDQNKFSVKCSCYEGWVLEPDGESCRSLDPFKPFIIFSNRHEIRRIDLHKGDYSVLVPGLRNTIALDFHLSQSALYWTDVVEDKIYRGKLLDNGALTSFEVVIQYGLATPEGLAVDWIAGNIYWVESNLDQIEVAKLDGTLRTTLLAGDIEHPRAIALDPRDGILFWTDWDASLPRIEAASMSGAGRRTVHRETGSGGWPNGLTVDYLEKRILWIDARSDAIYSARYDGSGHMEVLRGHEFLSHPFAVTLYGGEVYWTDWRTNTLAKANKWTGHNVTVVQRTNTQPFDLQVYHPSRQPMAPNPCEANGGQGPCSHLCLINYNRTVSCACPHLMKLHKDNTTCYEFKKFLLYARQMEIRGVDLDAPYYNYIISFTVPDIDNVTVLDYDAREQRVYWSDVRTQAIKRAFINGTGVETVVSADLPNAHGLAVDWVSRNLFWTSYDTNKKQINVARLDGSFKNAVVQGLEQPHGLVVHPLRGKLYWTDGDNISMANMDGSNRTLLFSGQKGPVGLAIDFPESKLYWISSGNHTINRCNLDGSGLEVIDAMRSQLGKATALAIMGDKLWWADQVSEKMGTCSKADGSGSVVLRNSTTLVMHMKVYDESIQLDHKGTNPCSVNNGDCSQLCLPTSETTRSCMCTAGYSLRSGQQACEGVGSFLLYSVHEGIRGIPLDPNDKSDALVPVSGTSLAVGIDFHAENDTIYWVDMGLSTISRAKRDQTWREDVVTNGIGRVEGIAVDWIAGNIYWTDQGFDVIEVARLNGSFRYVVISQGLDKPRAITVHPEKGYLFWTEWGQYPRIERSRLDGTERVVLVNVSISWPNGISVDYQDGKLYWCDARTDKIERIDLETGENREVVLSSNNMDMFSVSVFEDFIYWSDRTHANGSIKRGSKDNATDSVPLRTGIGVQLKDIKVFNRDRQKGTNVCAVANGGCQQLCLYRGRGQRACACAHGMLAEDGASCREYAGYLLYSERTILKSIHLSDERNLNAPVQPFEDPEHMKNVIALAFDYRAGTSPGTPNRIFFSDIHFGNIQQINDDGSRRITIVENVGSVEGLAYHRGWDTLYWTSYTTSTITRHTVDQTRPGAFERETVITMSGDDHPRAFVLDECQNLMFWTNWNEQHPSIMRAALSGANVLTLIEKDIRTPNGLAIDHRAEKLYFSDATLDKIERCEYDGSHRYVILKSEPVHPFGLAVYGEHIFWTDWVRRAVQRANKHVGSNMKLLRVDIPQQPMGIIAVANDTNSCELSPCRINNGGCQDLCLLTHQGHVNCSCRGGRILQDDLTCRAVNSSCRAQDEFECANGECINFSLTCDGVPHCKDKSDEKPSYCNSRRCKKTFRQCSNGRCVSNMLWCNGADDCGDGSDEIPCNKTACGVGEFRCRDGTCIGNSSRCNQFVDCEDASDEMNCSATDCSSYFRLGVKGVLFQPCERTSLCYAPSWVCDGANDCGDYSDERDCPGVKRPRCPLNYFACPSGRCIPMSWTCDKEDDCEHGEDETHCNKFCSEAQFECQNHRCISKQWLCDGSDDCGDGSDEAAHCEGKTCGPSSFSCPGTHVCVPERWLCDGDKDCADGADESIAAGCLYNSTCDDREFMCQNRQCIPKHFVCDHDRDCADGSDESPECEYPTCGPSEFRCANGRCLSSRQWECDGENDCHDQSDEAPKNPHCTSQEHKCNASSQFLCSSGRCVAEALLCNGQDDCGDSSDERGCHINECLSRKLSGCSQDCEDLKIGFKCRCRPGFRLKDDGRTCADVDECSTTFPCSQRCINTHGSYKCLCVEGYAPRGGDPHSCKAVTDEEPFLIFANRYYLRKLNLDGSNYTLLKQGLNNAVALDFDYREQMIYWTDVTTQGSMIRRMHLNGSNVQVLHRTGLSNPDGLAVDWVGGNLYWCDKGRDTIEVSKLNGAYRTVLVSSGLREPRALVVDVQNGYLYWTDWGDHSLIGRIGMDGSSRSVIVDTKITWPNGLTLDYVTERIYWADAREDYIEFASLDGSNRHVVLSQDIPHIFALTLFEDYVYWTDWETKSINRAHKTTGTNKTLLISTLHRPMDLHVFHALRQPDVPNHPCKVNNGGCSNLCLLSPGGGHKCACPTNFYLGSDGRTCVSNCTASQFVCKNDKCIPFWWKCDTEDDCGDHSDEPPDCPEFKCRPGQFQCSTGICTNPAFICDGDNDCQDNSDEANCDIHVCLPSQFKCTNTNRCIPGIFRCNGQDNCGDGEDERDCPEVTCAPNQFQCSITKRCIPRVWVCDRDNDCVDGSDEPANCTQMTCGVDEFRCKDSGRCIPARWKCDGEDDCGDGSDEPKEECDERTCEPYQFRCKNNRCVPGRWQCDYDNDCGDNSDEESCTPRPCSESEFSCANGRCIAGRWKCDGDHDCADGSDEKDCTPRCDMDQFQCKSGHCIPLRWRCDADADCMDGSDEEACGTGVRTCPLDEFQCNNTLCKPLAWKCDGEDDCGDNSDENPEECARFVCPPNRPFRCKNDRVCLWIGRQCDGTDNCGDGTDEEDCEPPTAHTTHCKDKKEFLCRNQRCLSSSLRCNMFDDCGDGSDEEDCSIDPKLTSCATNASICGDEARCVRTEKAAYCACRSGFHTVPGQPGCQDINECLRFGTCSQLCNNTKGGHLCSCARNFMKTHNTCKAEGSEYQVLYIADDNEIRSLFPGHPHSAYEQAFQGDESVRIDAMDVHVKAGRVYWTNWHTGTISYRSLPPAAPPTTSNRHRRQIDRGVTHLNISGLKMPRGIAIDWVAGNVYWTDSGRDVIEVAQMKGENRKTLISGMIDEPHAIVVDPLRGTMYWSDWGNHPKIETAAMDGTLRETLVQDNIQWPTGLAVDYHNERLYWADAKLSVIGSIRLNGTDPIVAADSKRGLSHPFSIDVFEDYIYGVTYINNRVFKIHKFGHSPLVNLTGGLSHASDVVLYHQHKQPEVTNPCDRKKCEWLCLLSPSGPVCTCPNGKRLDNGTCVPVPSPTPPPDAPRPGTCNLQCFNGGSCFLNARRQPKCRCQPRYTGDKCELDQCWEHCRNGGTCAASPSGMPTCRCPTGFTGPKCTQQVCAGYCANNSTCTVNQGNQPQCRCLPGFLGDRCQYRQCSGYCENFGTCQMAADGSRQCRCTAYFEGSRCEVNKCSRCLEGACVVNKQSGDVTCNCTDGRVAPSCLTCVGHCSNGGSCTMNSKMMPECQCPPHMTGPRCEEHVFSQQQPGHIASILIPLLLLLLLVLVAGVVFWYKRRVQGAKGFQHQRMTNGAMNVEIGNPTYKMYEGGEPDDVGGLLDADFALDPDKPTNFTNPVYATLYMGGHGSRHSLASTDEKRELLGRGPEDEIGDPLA

## NC12CC3CC(CC(C3)C1)C2 [amantadine]
[1]
  results in Huntington's disease: preliminary positive results

## FAM-Ahx-SRRVISRAKLAAAL-OH ({FAM-Ahx}-SRRVISRAKLAAAL-OH) [FAM-Cerepep]
microglia
  association with microglia (CD11b): could be detected associated with microglia in the brain tissues
astrocytes
  association with astrocytes (GFAP): could be detected associated with astrocytes in the brain tissues
Neuro2A cells [2]
  binding and uptake of FAM-peptide: bound to and was taken up by Neuro2A cells
Mature neurons
  association with neurons (NeuN): could be detected associated with neurons in the brain tissues
Mouse brain
  detection in brain: could be detected in the brain tissues

## RAP: Receptor Associated Protein, inhibitor of several LDL-receptor proteins
P3 human stem cells
  effect on AgNP-Cerepep binding to P3 cells: reduced
Human LRP1
  inhibition of CP-neutravidin binding to LRP1: inhibited

## FAM-RPARPAR-OH ({FAM}-RPARPAR-OH) [reference compound]
Neuro2A cells [2]
  binding and uptake of FAM-peptide: only background binding

## Nc1nc2ccc(OC(F)(F)F)cc2s1 [riluzole, 2-amino-6-(trifluoromethoxy)benzothiazole]
ALS subjects
  survival time in subjects with ALS: borderline significance with respect to survival time
ALS subjects; listed as Riluzole
  survival time in subjects with ALS: improved survival time in subjects with ALS

## CC1C=CC=CCCC=CC=CC=CC=CC(OC2OC(C)C(O)C(N)C2O)CC2OC(O)(CC(O)C(O)CCC(O)CC(O)CC(O)CC(=O)OC(C)C(C)C1O)CC(O)C2C(=O)O (stereo not drawn) [Nystatin]
Neuro2A cells [3]
  inhibitory effect on the uptake of CP-AgNPs: did not have a statistically significant inhibitory effect

## CC(Cc1ccccc1)(NC(=O)CN)c1ccccc1 (stereo not drawn) [remacemide]
[1]
  results in Huntington's disease: preliminary positive results

## O=C(O)CN(CCN(CC(=O)O)CC(=O)O)CC(=O)O [EDTA]
Human LRP1
  inhibition of CP-neutravidin binding to LRP1: inhibited

## CC(C)[C@H](NC(=O)[C@H](CS)NC(=O)CCCCCNC(=O)c1ccc2c(c1)C(=O)OC21c2ccc(O)cc2Oc2cc(O)ccc21)C(=O)N[C@@H](Cc1ccc(O)cc1)C(=O)N[C@H](C(=O)N[C@@H](CS)C(=O)N[C@@H](CC(N)=O)C(=O)NCC(=O)O)[C@@H](C)O [CVYTCNG, reference compound] ({5FAM-Ahx}-CVYTCNG-OH)
[4]
  detection in brain parenchyma: not detectable in the brain parenchyma; also recorded: no targeting to brain parenchyma
  detection/targeting in GBM: binding was detected in the GBM

## COC(=O)C(c1ccccc1)C1CCCCN1 (stereo not drawn) [methylphenidate]
ADHD / ASD subjects; ADHD
  treatment of ADHD: safe and effective
ADHD / ASD subjects; children with ASD
  treatment of hyperactivity in children with ASD: effectively treat hyperactivity in children with ASD

— patent publication US20260347399A1, “BRAIN PENETRATING PEPTIDES AND METHODS OF USE” (priority 2022, published 2026)
